Data set [1] has as its system skeletal muscle of the rat (chronic ischemic). As to the kind of experiment: Effect on the contractility of the skeletal muscle after chronic ischemia (tiring index). It counts as in vivo, rat (male Wistar). As to conditions: 6 mg/kg p.o. over 7 days, n = 4-6; for TI of ischemic treated muscle: tiring index = maximum contractility / residual force after 5 min stimulation; for change in vivo at 6 mg/kg: Rattus norvegicus, po, 168 h, smaller value = more effective, read-out: Percentage change (TI of ischemic treated muscle vs TI of normal non-treated muscle). The text has this:
1) Effect on the Contractility of the Skeletal Muscle After Chronic Ischemia
In recent years, a marked change has taken place in ideas about the pathophysiology of chronic peripheral arterial occlusive disease as scientific interest has to an increasing extent shifted from the macrocirculation to the microcirculation. Disturbances in the microcirculation therefore manifest themselves in an undersupply of substrates with tissue ischemia resulting therefrom which, in turn, leads to an impairment in the function of the extremity concerned. The logical consequence of this is that the target organ skeletal muscle comes more and more into the forefront. […] The clinical activity is in fact also consistently determined in humans with the aid of the painless walking distance on the moving walkway.
Male Wistar rats having a body weight of 380 to 410 g were used as experimental animals. Under hexobarbital anesthesia (®Evipan--sodium, 200 mg/kg BW (=body weight) i.p.), a unilateral ligature of the right femoral artery was applied to the animals in the groin. After sprinkling penicillin sulfonamide powder for antibiotic wound care, the small operation wound was closed and the animals were continuously observed until they were completely awake. One week later, the administration of substance began by oral administration using a stomach tube (6 mg/kg BW, carboxymethylcellulose-sodium suspension) and was continued for 7 days (single administration per day, about 7h30 to 8h30). The contractility was measured 24 h after the last administration of substance in order to exclude acute effects, to be precise by the following experimental protocol:
Superfusion with physiological saline solution (37° C.) was used to avoid drying out and cooling. The mean arterial blood pressure was recorded continuously via Statham (=blood pressure measuring device) by means of a cannulated caroted artery to control the physiological status of the animals during the experiment. All animals breathed spontaneously by means of an inserted tracheal tube.
After these preparations, the muscle was made to contract (Stimulator I, Hugo Sachs, Federal Republic of Germany) by direct electrical stimulation (2.5 mA, 2 Hz). The absolute contractility in grams at various times of stimulation was used as the measured parameter. […] If the maximum contractility at the start of stimulation is now divided by the residual force remaining after 5 minutes' tiring stimulation, a "tiring index TI" for the muscle concerned can be calculated; the ability to tire here is larger the larger TI is numerically.
4 to 6 individual experiments were carried out for each test preparation.

The subject of data set [2] is laser-induced thrombosis in mesenterial arterioles. Briefly: Inhibition of laser-induced thrombosis in mesenterial arterioles of the rat. Conditions: Rattus norvegicus, po, read-out: Percentage change vs control (inhibition of laser-induced thrombosis); for inhibition in vivo at 10 mg/kg: 10 mg/kg p.o.; for inhibition in vivo at 20 mg/kg: 20 mg/kg p.o. It counts as in vivo, rat (female Sprague-Dawley).

The nature of data set [3]: Acute toxicity (LD50 range). Conditions: mouse, in vivo, single administration, NMRI mice, 7 days. The procedure: The determination of the LD50 ranges was carried out in standard fashion by means of the mortality occurring in the course of 7 days in NMRI mice after single intravenous (i.v.) or intraperitoneal (i.p.) administration (NMRI=NIH Medical Research Institute).

The test system of another data set is acutely ischemic muscle. Briefly: Contractility in the acutely ischemic muscle. Type of data set: in vivo. As to conditions: i.v. On the procedure:
The contractility in the acutely ischemic muscle was measured in a similar experimental procedure, as described under 1). The muscle, initially normally supplied with blood, was made to contract isometrically by direct electrical stimulation (1.2 Hz, 2.5 mA). The right femoral artery was then occluded for 5 min by means of a clamp. […] The vessel was then reopened and the starting contractility before the first occlusion was attained. During the second occlusion which then followed, the preparations to be tested were administered intravenously in aqueous solution via the jugular vein. 4-8 animals were employed per preparation and dose. The decrease in the contractility during occlusion with and without substance administration was compared and the percentage change was used to evaluate the substance activity. The substances according to the invention, for example the compound of Example 7, were also remarkable in this test for outstanding effects.

Data set [4] relates to capillary bed of the skeletal muscle of the rat. Briefly: Laser-Doppler flow measurement of erythrocyte flux in acutely ischemic skeletal muscle. Type of data set: in vivo, rat (male Wistar). As to conditions: during occlusion. On the procedure:
Using laser-Doppler flow measurements (LDF), the erythrocyte flux (the number of cells flowing past under the laser beam x their velocity) can be measured in a noninvasive and continuous manner in the capillary bed of the skeletal muscle of the rat (perimed PF2 laser-Doppler flowmeter, Perimed, Sweden). […] The apparatus was set as follows: 12 kHz, gain 10, time constant 1.5 sec, 37° C. The right femoral artery of male Wistar rats having a body weight of 380-430 g was exposed and the skin and the connective tissue was dissected away over a small muscle area (anterior tibia). The probe was placed about 1 mm above this area. […] At this point, the test substances were infused intravenously in aqueous solution (0.03 and 0.6 mg/kg/min). The maximum percentage increase in the erythrocyte flux after administration of substance during the occlusion (see also Okyayuz-Baklouti, I., European J. of Pharmacology, 166: 75-86, 1989) was used as the measuring parameter for the substance activity. […] 3-7 animals were employed per preparation and dose.

For data set [5], the system named is photochemically-induced thrombosis in mesenterial arterioles. Briefly: Inhibition of photochemically-induced thrombosis in mesenterial arterioles. It counts as in vivo, rat. On the procedure: In this model, rats were anesthetized as described above under 2). The investigations were carried out on mesenterial arterioles having a diameter of 11 to 50 lm. A thrombosis was induced in a modification in accordance with a method known from the literature (Herrmann, K. H. Microvasc. Res. 26, 238-249, 1983) and is based on the photochemical release of singlet oxygen, which leads locally to an endothelial lesion. The animals to be investigated received an intravenous injection of 0.3 ml of a 10% strength solution of fluorescein in isothiocyanate--Dextran 70 (FITC--Dextran 70 s, Sigma, Munich). The arterole was looked for under the microscope and centered in the observation field. The FITC--Dextran in the blood vessel was then excited using a special lamp and filter device (excitation 490 nm, emission 510 nm). For evaluation of thrombus formation, the time was taken which extended from the point of excitation to the formation of a first thrombus on the wall. 5 vessels in each animal were examined in this manner.

With `Cn1cnc(S(=O)(=O)O)c1Cl` [Example 1, 5-Chloro-1-methyl-4-imidazolesulfonic acid], in data set [1], the “TI of ischemic treated muscle” value is listed as 2.26 and the change in vivo at 6 mg/kg came to 1.3%. Also, in data set [2], the inhibition in vivo at 10 mg/kg came out at 13%. Further, the median lethal dose (LD50) (in general, the dose expected to kill half of the subjects tested) at 168 h in data set [3] (iv) is greater than 200 mg/kg.
Taken in the same sequence, the figures for `Cl.Cn1cnc(S(=O)(=O)NCCCCN2CCOCC2)c1` [Example 10, N-(4-morpholinobutyl)-1-methyl-4-imidazolesulfonamide hydrochloride] were 2.19, -3.6%, 38% and greater than 100 mg/kg.
In the case of `Cl.Cn1cnc(S(=O)(=O)NCc2ccc(CN3CCOCC3)cc2)c1` [Example 14, N-[4-(morpholinomethyl)benzyl]-1-methyl-4-imidazolesulfonamide hydrochloride], in data set [1], the “TI of ischemic treated muscle” value amounted to 2.57 and the change in vivo at 6 mg/kg came out at 13.4%. Besides, in data set [2], the inhibition in vivo at 20 mg/kg is 13%. In data set [3] (iv), this molecule gave an LD50 at 168 h greater than 100 mg/kg.
For `Cn1cnc(S(=O)(=O)N2CCN(c3ccc(O)cc3)CC2)c1` [Example 25], in data set [1], the “TI of ischemic treated muscle” value amounted to 2.11 and the change in vivo at 6 mg/kg stood at 6.6%. The inhibition in vivo at 10 mg/kg in data set [2] turned out to be 22%. In data set [3] (ip), this molecule gave an LD50 at 168 h greater than 300 mg/kg.
For `CN1CCN(CCCNS(=O)(=O)c2cn(C)cn2)CC1` [Example 27, N-[3-(4-Methylpiperazino)propyl]-1-methyl-4-imidazolesulfonamide dihydrogenfumarate], in data set [1], the “TI of ischemic treated muscle” value was determined as 2.6 and the change in vivo at 6 mg/kg was found to be 32.6%. In addition, in data set [2], the inhibition in vivo at 20 mg/kg amounted to 23%. For the same molecule, the 50% lethal dose (LD50) at 168 h in data set [3] (iv) was greater than 100 mg/kg.
`Cl.Cn1ccnc1S(=O)(=O)NCCCN1CCOCC1` [Example 29, N-(3-Morpholinopropyl)-1-methyl-2-imidazolesulfonamide hydrochloride]: in data set [1], the “TI of ischemic treated muscle” value is given as 2.74 and the change in vivo at 6 mg/kg came out at 38.4%. In addition, in data set [2], the inhibition in vivo at 10 mg/kg is 21%. The LD50 at 168 h in data set [3] (iv) is greater than 100 mg/kg.
In the case of `Cl.Cn1ccnc1S(=O)(=O)NCCN1CCOCC1` [Example 30, N-(2-Morpholinoethyl)-1-methyl-2-imidazolesulfonamide hydrochloride], in data set [1], the “TI of ischemic treated muscle” value is reported as 2.82 and the change in vivo at 6 mg/kg is -14.2%. For the same molecule, the inhibition in vivo at 10 mg/kg in data set [2] is 45%. In data set [3] (iv), this molecule showed an LD50 at 168 h greater than 100 mg/kg.
On the same counts, the results for `Cl.Cn1cnc(S(=O)(=O)NCCCN2CCOCC2)c1Cl` [Example 32, N-(3-Morpholinopropyl)-5-chloro-1-methyl-4-imidazolesulfonamide hydrochloride] are 2.51, 6.4%, 21% and greater than 200 mg/kg.
Taken in the same sequence, the figures for `Cl.Cn1cnc(S(=O)(=O)NCCCCCN2CCOCC2)c1Cl` [Example 34, N-(5-Morpholino-1-pentyl)-5-chloro-1-methyl-4-imidazolesulfonamide hydrochloride] were 1.98, 0%, 15% and greater than 100 mg/kg.
Consider `Cn1cnc(S(=O)(=O)N2CCN(c3ccc(O)cc3)CC2)c1Cl` [Example 40], for which, in data set [1], the “TI of ischemic treated muscle” value is listed as 3.18 and the change in vivo at 6 mg/kg is 34.7%. For the same molecule, in data set [2], the inhibition in vivo at 10 mg/kg was found to be 17%. Moreover, in data set [3] (ip), the LD50 at 168 h is greater than 1200 mg/kg.
On to `Cn1cnc(S(=O)(=O)NCCc2ccc(O)cc2)c1Cl` [Example 46, N-(4-hydroxyphenethyl-)-5-chloro-1-methyl-4-imidazolesulfonamide], for which, in data set [1], the “TI of ischemic treated muscle” value was 2.05 and the change in vivo at 6 mg/kg is -6.4%. Further, the inhibition in vivo at 10 mg/kg in data set [2] amounted to 29%. For the same molecule, the inhibition in vivo at 30 mg/kg in data set [2] (30 mg/kg p.o.) turned out to be 29%. This molecule registered an LD50 at 168 h in data set [3] (ip) greater than 1200 mg/kg.
With `Cl.Cn1cncc1S(=O)(=O)NCCCN1CCOCC1` [Example 53, N-(3-Morpholino-1-propyl)-1-methyl-5-imidazolesulfonamide hydrochloride], in data set [1], the “TI of ischemic treated muscle” value turned out to be 3.18 and the change in vivo at 6 mg/kg was -3.3%. Also, the inhibition in vivo at 10 mg/kg in data set [2] was 18%. In data set [3] (iv), this molecule came in with an LD50 at 168 h greater than 100 mg/kg.
Turning to `Cn1cnc(S(=O)(=O)NCCCCCCNS(=O)(=O)c2cn(C)cn2)c1` [Example 54, 1,6-Bis(1-methyl-4-imidazolesulfonamido)hexane], in data set [1], the “TI of ischemic treated muscle” value is given as 2.55 and the change in vivo at 6 mg/kg was found to be 37.8%. The inhibition in vivo at 10 mg/kg in data set [2] stood at 17%. Moreover, the LD50 at 168 h in data set [3] (ip) was greater than 1200 mg/kg.
Consider `CC(=O)CCCCn1c(=O)c2c(ncn2C)n(C)c1=O` [Pentoxyfylline, 1-(5-oxohexyl)-3,7-dimethylxanthine, reference compound], for which the “TI of ischemic treated muscle” value in data set [1] is reported as 3.20. In data set [1], the change in vivo at 6 mg/kg was found to be 43.5%. In the data set with acutely ischemic muscle, the “activity in acute ischemic muscle contractility test (in words)” value was “only showed marginal activity”. Besides, the “maximum percentage increase in the erythrocyte flux” value stood at 24.6% in data set [4] (0.03 mg/kg/min i.v. infusion) and 33.1% in data set [4] (0.6 mg/kg/min i.v. infusion). The “inhibition of photochemically-induced thrombosis” value amounted to 29% in data set [5] (1 mg/kg p.o.); 3% in data set [5] (3 mg/kg i.v.); 18% in data set [5] (3 mg/kg p.o.); 38% in data set [5] (10 mg/kg i.v.); 68% in data set [5] (10 mg/kg p.o.).

Values taken from patent US5232922A, “Imidazole compounds, processes for their preparation, pharmaceuticals based on these compounds and some intermediates” (priority 1990, dated 1993).
